Source: patent publication US20230167132A1, “FORMS AND COMPOSITIONS OF INHIBITORS OF PLASMA KALLIKREIN” (Takeda Pharmaceutical Company Limited, priority 2020, published 2023)
Several values for one entry are separate records, joined by “and”; a condition that tells them apart may be missing. Identical values can stand only once. Entries after “also recorded” stand apart in the source; their conditions may differ. Like-named read-outs stand apart in the source and are kept apart here.

Assays:
[1] = Storage for one week at 40° C./75% RH and 25° C./97% RH, XRPD; format: physicochemical
[2] = Intrinsic Dissolution Rate (IDR), Sirius inForm; format: physicochemical; details: for IDR Sector 1 average (pH 2.0) / IDR Sector 1 pH 2.0: pH 2.0, 37° C.; for IDR Sector 1 pH 2.0: individual runs; for XRPD Analysis Post Dissolution: solid form of disc after IDR analysis; for sector 1 IDR compared to free base form Compound 1 Form 1 / other forms: pH 2.0, comparison in words
Description: About 40 mg of the sample was compressed in a 6 mm disc recess, under 100 kg for 2 minutes, with greaseproof paper on the compression base, to form nondisintegrating discs. The discs were then plugged with a bung so that only one surface was exposed to the media during analysis and transferred to the Sirius inForm dissolution apparatus. Analysis was performed at 37° C. in 40 mL media (36 mL ISA water, 4 mL 0.1 M Acetate Phosphate Buffer). Dissolution data were collected over 4 pH sectors (pH 2.0, 5.5, 6.5, and 7.4) for a total of 2 hours—30 minutes per sector, with UV spectra collected every 30 seconds. A stir speed of 225 rpm was used with a 10 mm path length probe. The IDR was calculated based on the surface area of the 3/6/8 mm disc recess used (28.3 mm2 surface area). XRPD analysis was performed on all samples, both after compression of the material into the disc recess, and post dissolution analysis to observe any change in form. XRPD diffractograms were collected on the Bruker C2.

[3] = Gravimetric vapour sorption (GVS) analysis; format: physicochemical; details: for XRPD post GVS analysis: change of solid form after GVS; for GVS hygroscopicity: classification in words
[4] = Competitive slurry / thermodynamic stability of solid forms; format: physicochemical; details: competitive slurries at 5 and 50° C. in selected solvents, XRPD
Description: To these, 40 vol (1 mL) selected solvents was added and the material slurried at 5° C. or 50° C. for 72 hours on a HEL polyblock (500 rpm stirring). Solids were subsequently isolated by filtration and dried under suction prior to analysis by XRPD. In all but one experiment, Form 1 was the sole detectable phase by XRPD obtained after 72 hours.
These were mixed, and then aliquots (20 mg) of this mixture were dispensed into HPLC vials and 90 vol (1.8 mL) selected solvents added. Samples were slurried using a Polar Bear with 500 rpm magnetic stirring at 5 and 50° C. After 24 hours, aliquots were removed and analysed by XRPD. Experiment numbers: 01-10.
120 mg of both Compound 6 Pattern 1 and Compound 6 Pattern 4 were dispensed into a 20 mL vial. These were mixed, and then aliquots (20 mg) of this mixture was dispensed into HPLC vials and 90 vol selected solvents were added. Samples were slurried using a Polar Bear with 500 rpm magnetic stirring. Aliquots were removed after four days and analyzed by XRPD.

[5] = molecular target: plasma kallikrein (Homo sapiens, UniProt P03952); details: in vitro kallikrein kinase assay, reported in the '129 publication; cited from earlier work
plasma kallikrein, sequence (P03952 20-638, species assumed): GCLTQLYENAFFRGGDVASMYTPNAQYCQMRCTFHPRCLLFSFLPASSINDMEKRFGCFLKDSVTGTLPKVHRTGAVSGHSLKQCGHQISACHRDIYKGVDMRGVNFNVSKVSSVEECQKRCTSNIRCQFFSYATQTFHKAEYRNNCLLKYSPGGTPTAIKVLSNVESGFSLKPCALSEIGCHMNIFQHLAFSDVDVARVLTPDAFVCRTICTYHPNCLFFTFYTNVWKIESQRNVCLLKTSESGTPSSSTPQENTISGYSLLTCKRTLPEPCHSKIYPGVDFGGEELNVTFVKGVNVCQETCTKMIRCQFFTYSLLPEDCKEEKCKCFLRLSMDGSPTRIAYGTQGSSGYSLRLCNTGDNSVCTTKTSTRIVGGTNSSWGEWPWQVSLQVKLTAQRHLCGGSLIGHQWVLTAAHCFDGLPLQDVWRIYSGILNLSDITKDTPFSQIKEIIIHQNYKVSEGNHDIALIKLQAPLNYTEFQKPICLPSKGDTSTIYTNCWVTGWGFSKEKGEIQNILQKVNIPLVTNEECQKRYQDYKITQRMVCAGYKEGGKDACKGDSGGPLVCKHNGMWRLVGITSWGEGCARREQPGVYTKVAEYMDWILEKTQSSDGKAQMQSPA

[6] = Solubility of Compound 1 in various solvents; format: physicochemical
Description: Solubility of >10 mg/mL was only observed in DMSO, NMP and MeOH:DCM 1:3 at 50° C.

[7] = one week (7 days), scaled-up / characterised material

For `O=C(NCc1ncn2ccc(Cl)c(F)c12)c1cn(Cc2cn3cc(C4CC4)ccc3n2)nn1` [Compound 1 Form 1, N-((7-chloro-8-fluoroimidazo[1,5-a]pyridin-1-yl)methyl)-1-((6-cyclopropylimidazo[1,2-a]pyridin-2-yl)methyl)-1H-1,2,3-triazole-4-carboxamide], the “Storage 25° C./97% RH, XRPD” value [1, 7] was “Compound 1 Form 1”, the “Storage 40° C./75% RH, XRPD” value [1, 7] was “Compound 1 Form 1” and the “IDR Sector 1 average (pH 2.0)” value [2] was 104.8 μg/min/cm^2. For the same compound, the “IDR Sector 1 pH 2.0” value [2] was 104.3 μg/min/cm^2 and 105.2 μg/min/cm^2, the “XRPD Analysis Post Dissolution” value [2] was “No change” and the “GVS increase in mass” value ([3]; RH range not given) was 0.5%. The “XRPD post GVS analysis” value [3] was “Material unchanged by XRPD post GVS”, the GVS hygroscopicity [3] was “slightly hygroscopic” and the “thermodynamic stability relative to other solid forms” value [4] was “more thermodynamically stable than Compound 1 Form 3”. The “thermodynamic stability relative to other solid forms” value ([4]; listed as Form 1) was “more thermodynamically stable than Form 2; also recorded: more thermodynamically stable polymorph; also recorded: polymorph most stable to typical storage and process conditions”.
In the case of `O=C(NCc1ncn2ccc(Cl)c(F)c12)c1cn(Cc2cn3cc(C4CC4)ccc3n2)nn1` [Compound 1, N-((7-chloro-8-fluoroimidazo[1,5-a]pyridin-1-yl)methyl)-1-((6-cyclopropylimidazo[1,2-a]pyridin-2-yl)methyl)-1H-1,2,3-triazole-4-carboxamide], the EC50 [5] is given as < 1 nM, the solubility ([6]; 25 °C, organic solvent or mixture, all solvents assessed, Compound 1 as synthesized in Example 1, read-out: solubility at 25° C.) is given as < 10000 µg/mL and the solubility ([6]; Acetone, 50 °C, organic solvent or mixture, read-out: Solubility at 50° C.) is given as < 10000 µg/mL. For the same compound, the solubility ([6]; Acetone:H2O 9:1, 50 °C, organic solvent or mixture, read-out: Solubility at 50° C.) was < 10000 µg/mL, the solubility ([6]; Acetonitrile, 50 °C, organic solvent or mixture, read-out: Solubility at 50° C.) was < 10000 µg/mL and the solubility ([6]; Acetonitrile:H2O 1:1, 50 °C, aqueous with cosolvent or surfactant or cyclodextrin, read-out: Solubility at 50° C.) was < 10000 µg/mL. For the same compound, the solubility ([6]; DCM, 50 °C, organic solvent or mixture, read-out: Solubility at 50° C.) was < 10000 µg/mL, the solubility ([6]; DMAC, 50 °C, organic solvent or mixture, read-out: Solubility at 50° C.) was < 10000 µg/mL and the solubility ([6]; DMF, 50 °C, organic solvent or mixture, read-out: Solubility at 50° C.) was < 10000 µg/mL. For the same compound, the “Solubility at 50° C.” value ([6]; DMSO) was >10000 µg/mL, the solubility ([6]; DMSO, 50 °C, organic solvent or mixture, read-out: Solubility at 50° C.) was > 10000 µg/mL and the solubility ([6]; Ethanol, 50 °C, organic solvent or mixture, read-out: Solubility at 50° C.) was < 10000 µg/mL. For the same compound, the solubility ([6]; Ethyl acetate, 50 °C, organic solvent or mixture, read-out: Solubility at 50° C.) was < 10000 µg/mL, the solubility ([6]; IPA, 50 °C, organic solvent or mixture, read-out: Solubility at 50° C.) was < 10000 µg/mL and the solubility ([6]; IPAC, 50 °C, organic solvent or mixture, read-out: Solubility at 50° C.) was < 10000 µg/mL. For the same compound, the solubility ([6]; MEK, 50 °C, organic solvent or mixture, read-out: Solubility at 50° C.) was < 10000 µg/mL, the solubility ([6]; MIBK, 50 °C, organic solvent or mixture, read-out: Solubility at 50° C.) was < 10000 µg/mL and the solubility ([6]; MeOH:Chlorobenzene (1:1), 50 °C, organic solvent or mixture, read-out: Solubility at 50° C.) was < 10000 µg/mL. The “Solubility at 50° C.” value ([6]; MeOH:DCM 1:3) was >10000 µg/mL, the solubility ([6]; MeOH:DCM 1:3, 50 °C, organic solvent or mixture, read-out: Solubility at 50° C.) was > 10000 µg/mL and the solubility ([6]; MeOH:H2O 9:1, 50 °C, organic solvent or mixture, read-out: Solubility at 50° C.) was < 10000 µg/mL. The solubility ([6]; MeOH:Toluene (1:1), 50 °C, organic solvent or mixture, read-out: Solubility at 50° C.) was < 10000 µg/mL, the solubility ([6]; MeOH:anisole (1:1), 50 °C, organic solvent or mixture, read-out: Solubility at 50° C.) was < 10000 µg/mL and the solubility ([6]; Methanol, 50 °C, organic solvent or mixture, read-out: Solubility at 50° C.) was < 10000 µg/mL. The “Solubility at 50° C.” value ([6]; NMP) was >10000 µg/mL, the solubility ([6]; NMP, 50 °C, organic solvent or mixture, read-out: Solubility at 50° C.) was > 10000 µg/mL and the solubility ([6]; TBME, 50 °C, organic solvent or mixture, read-out: Solubility at 50° C.) was < 10000 µg/mL. The solubility ([6]; THF, 50 °C, organic solvent or mixture, read-out: Solubility at 50° C.) was < 10000 µg/mL, the solubility ([6]; THF:H2O 9:1, 50 °C, organic solvent or mixture, read-out: Solubility at 50° C.) was < 10000 µg/mL and the solubility ([6]; Toluene, 50 °C, organic solvent or mixture, read-out: Solubility at 50° C.) was < 10000 µg/mL. The solubility ([6]; n-heptane, 50 °C, organic solvent or mixture, read-out: Solubility at 50° C.) was < 10000 µg/mL, the solubility ([6]; t-BuOH, 50 °C, organic solvent or mixture, read-out: Solubility at 50° C.) was < 10000 µg/mL and the solubility ([6]; t-BuOH:H2O 1:1, 50 °C, aqueous with cosolvent or surfactant or cyclodextrin, read-out: Solubility at 50° C.) was < 10000 µg/mL.
For `O=C(NCc1ncn2ccc(Cl)c(F)c12)c1cn(Cc2cn3cc(C4CC4)ccc3n2)nn1.O=C(O)C(=O)O` [Compound 6 Pattern 4], the “Storage 25° C./97% RH, XRPD” value [1, 7] was “unchanged by XRPD”, the “Storage 40° C./75% RH, XRPD” value [1, 7] was “unchanged by XRPD” and the “IDR Sector 1 average (pH 2.0)” value ([2]; listed as Oxalate Pattern 4) was 674.7 μg/min/cm^2. For the same compound, the “IDR Sector 1 pH 2.0” value ([2]; listed as Oxalate Pattern 4) was 692.8 μg/min/cm^2 and 656.6 μg/min/cm^2, the “sector 1 IDR compared to free base form Compound 1 Form 1 / other forms” value [2] was “increased sector 1 IDR” and the “XRPD Analysis Post Dissolution” value ([2]; listed as Oxalate Pattern 4) was “Partial conversion to Compound 1”. For the same compound, the GVS mass loss ([3]; between 0 and 90% RH) was 0.66%, the “XRPD post GVS analysis” value [3] was “unchanged” and the GVS hygroscopicity [3] was “slightly hygroscopic”. For the same compound, the “thermodynamic stability relative to other solid forms” value [4] was “more thermodynamically stable of the two solvent-free oxalate salts; also recorded: more thermodynamically stable than Compound 6 Pattern 1” and the “thermodynamic stability relative to other solid forms” value ([4]; listed as Oxalate Pattern 4) was “More thermodynamically stable”.
With `O=C(NCc1ncn2ccc(Cl)c(F)c12)c1cn(Cc2cn3cc(C4CC4)ccc3n2)nn1.O=C(O)C(=O)O` [Compound 6 Pattern 1] the “Storage 25° C./97% RH, XRPD” value [1, 7] was “unchanged by XRPD”, the “Storage 40° C./75% RH, XRPD” value [1, 7] was “unchanged by XRPD” and the “Storage 40° C./75% RH, XRPD” value ([1]; one week, material isolated from salt/cocrystal screening experiments) was “slightly changed”. The “IDR Sector 1 average (pH 2.0)” value [2] was 866.8 μg/min/cm^2, the “IDR Sector 1 average (pH 2.0)” value ([2]; listed as Oxalate Pattern 1) was 866.8 μg/min/cm^2 and the “IDR Sector 1 pH 2.0” value ([2]; listed as Oxalate Pattern 1) was 895.9 μg/min/cm^2 and 837.7 μg/min/cm^2. The “sector 1 IDR compared to free base form Compound 1 Form 1 / other forms” value [2] was “increased sector 1 IDR”, the “XRPD Analysis Post Dissolution” value ([2]; listed as Oxalate Pattern 1) was “Partial conversion to Compound 1” and the GVS mass increase ([3]; between 0 and 90% RH) was 0.6%. For the same compound, the “XRPD post GVS analysis” value [3] was “no observed change”, the GVS hygroscopicity [3] was “slightly hygroscopic” and the “thermodynamic stability relative to other solid forms” value ([4]; listed as Oxalate Pattern 1) was “Less thermodynamically stable”.
